Drawing on patent US11306101B2 (Celgene Corporation, priority 2019, dated 2022), this text covers DC50 and Y for 19 molecules.

Where only a bound is given, the exact number is not on record here.

In the assay the target is T1, CK1α (Homo sapiens, UniProt P48729+Q96SW2).
T1 construct: expressed in transfected cells
Nature of the assay: CK1α ePL degradation assay in MDS-L cells. The assay is classed as cell-based. The settings on record: MDS-L cells expressing ePL-tagged CK1α; for DC50: concentration giving 50% CK1α degradation vs DMSO control; for Y: lowest measured CK1α level normalized to DMSO control. The method, then:
The following is an example of an assay that can be used to determine the CK1α degradation activity of Isoindolinone Carboxamide Compounds in a cell line, for example, the MDS-L cell line.
Compounds were dispensed by an acoustic dispenser (ATS acoustic transfer system from EDC Biosystems) into a 384-well in a 10 point dose-response curve using 3-fold dilutions starting at 10 μM and going down to 0.0005 μM in DMSO. […] Assay plates were incubated at 37° C. with 5% CO2 for the indicated times. At the different time points, 25 μL of the InCELL Hunter™ Detection Reagent Working Solution (catalog number 96-0002, DiscoverX, Fremont, Calif.) was added to each well and incubated at RT for 30 min protected from light. After 30 min, luminescence was read on a PHERAstar luminometer (BMG LABTECH, Cary, N.C.).
CK1α levels in compound-treated wells were normalized to that of DMSO control and expressed as percent of control (PoC) (y).
The lowest measured CK1α level normalized to DMSO control in response to compound treatment, termed Y value, was used to characterize the compound-mediated CK1α degradation efficiency.

T1 sequence (P48729 whole entry): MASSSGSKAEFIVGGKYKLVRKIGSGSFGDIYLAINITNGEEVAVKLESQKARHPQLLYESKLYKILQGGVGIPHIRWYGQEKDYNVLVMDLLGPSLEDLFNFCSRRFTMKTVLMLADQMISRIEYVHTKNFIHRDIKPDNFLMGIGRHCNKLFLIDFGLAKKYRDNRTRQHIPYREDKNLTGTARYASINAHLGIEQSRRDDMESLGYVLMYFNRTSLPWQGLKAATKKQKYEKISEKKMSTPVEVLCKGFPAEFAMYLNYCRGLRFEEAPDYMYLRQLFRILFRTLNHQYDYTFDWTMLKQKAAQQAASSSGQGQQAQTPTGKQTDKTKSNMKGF
T1 sequence (Q96SW2 whole entry): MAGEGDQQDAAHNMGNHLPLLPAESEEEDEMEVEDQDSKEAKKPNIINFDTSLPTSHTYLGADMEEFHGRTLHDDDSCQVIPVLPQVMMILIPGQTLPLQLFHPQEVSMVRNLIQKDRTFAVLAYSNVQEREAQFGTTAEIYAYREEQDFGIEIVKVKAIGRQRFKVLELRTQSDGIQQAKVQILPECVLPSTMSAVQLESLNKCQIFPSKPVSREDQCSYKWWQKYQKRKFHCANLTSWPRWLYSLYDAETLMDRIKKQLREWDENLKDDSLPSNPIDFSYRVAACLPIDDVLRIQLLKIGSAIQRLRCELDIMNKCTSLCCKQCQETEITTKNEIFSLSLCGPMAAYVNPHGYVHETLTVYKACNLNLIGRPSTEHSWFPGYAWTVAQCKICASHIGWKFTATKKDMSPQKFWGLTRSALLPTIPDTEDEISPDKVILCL
T1 sequence (Q16531 whole entry partner): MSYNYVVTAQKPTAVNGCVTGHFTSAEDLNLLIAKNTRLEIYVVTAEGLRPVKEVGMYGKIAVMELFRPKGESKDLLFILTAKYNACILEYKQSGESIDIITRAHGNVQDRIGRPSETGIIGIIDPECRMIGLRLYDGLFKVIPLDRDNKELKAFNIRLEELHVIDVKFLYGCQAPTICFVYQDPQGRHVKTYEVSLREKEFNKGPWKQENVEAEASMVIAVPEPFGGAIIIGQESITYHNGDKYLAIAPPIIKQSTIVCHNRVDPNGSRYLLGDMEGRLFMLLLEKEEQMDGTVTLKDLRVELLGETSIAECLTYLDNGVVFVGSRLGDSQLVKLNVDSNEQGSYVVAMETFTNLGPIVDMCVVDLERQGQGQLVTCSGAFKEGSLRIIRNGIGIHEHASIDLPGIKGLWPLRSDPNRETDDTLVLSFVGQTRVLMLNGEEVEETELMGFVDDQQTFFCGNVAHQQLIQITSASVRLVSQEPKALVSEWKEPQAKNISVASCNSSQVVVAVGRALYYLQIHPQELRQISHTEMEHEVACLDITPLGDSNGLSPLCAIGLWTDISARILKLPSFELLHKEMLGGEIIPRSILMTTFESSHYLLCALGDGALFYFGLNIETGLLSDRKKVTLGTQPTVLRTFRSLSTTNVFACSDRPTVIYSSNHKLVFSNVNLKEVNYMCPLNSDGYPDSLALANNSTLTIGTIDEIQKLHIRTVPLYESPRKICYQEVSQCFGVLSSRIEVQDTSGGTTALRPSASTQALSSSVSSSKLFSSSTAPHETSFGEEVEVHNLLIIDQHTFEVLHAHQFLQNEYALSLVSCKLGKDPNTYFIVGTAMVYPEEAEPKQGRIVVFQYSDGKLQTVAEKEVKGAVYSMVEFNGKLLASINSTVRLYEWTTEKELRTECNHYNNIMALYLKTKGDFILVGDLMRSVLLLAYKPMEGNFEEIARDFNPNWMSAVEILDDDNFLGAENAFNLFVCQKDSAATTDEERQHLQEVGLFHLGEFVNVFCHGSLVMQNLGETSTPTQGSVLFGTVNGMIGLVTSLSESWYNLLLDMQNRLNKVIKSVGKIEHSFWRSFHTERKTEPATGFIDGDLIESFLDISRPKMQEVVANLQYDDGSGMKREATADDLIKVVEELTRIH

Consider `C[C@H](NC(=O)c1ccc2c(c1)CN(C1CCC(=O)NC1=O)C2=O)c1ccccc1` (stereo partly drawn) [Example 1, 2-(2,6-Dioxopiperidin-3-yl)-1-oxo-N—((S)-1-phenylethyl)isoindoline-5-carboxamide], for which the 50% degradation concentration (DC50) is less than 100 nM and the Y entry is “* (a Y value (shown as *) of 0<Y≤20%)”.

For the molecule `CC(C)NC(=O)c1ccc2c(c1)CN(C1CCC(=O)NC1=O)C2=O` (centres unmarked) [Example 2], the DC50 fell in the range of 100 to 500 nM and the Y entry is reported as “** (a Y value (shown as**) of 20%<Y≤35%)”.

Consider `C[C@H](NC(=O)c1ccc2c(c1)CN(C1CCC(=O)NC1=O)C2=O)C1CCCC1` (some centres unmarked) [Example 3], for which the 50% degradation concentration (DC50) is less than 100 nM and the Y result was “* (a Y value (shown as *) of 0<Y≤20%)”.

For `C[C@@H](NC(=O)c1ccc2c(c1)CN(C1CCC(=O)NC1=O)C2=O)C1CCCCC1` (some centres unmarked) [Example 4], the DC50 was less than 100 nM and the Y result is recorded as “* (a Y value (shown as *) of 0<Y≤20%)”.

On to `C[C@H](NC(=O)c1ccc2c(c1)CN(C1CCC(=O)NC1=O)C2=O)C1CC1` (some centres unmarked) [Example 5], for which the DC50 lay within 100 to 500 nM and the Y result is on record as “** (a Y value (shown as**) of 20%<Y≤35%)”.

As to `CC[C@H](NC(=O)c1ccc2c(c1)CN(C1CCC(=O)NC1=O)C2=O)c1ccccc1` (some centres unmarked) [Example 6], the DC50 is less than 100 nM and the Y entry is “* (a Y value (shown as *) of 0<Y≤20%)”.

`Cc1ccc([C@H](C)NC(=O)c2ccc3c(c2)CN(C2CCC(=O)NC2=O)C3=O)cc1` (some centres unmarked) [Example 7]: the DC50 is less than 100 nM and the Y entry was “* (a Y value (shown as *) of 0<Y≤20%)”.

Take `C[C@H](NC(=O)c1ccc2c(c1)CN(C1CCC(=O)NC1=O)C2=O)c1ccc(Cl)cc1` (some centres unmarked) [Example 8]: the DC50 is less than 100 nM and the Y result was “* (a Y value (shown as *) of 0<Y≤20%)”.

On to `C[C@H](NC(=O)c1ccc2c(c1)CN(C1CCC(=O)NC1=O)C2=O)C1CCC1` (some centres unmarked) [Example 9], for which the DC50 is less than 100 nM and the Y entry is “** (a Y value (shown as**) of 20%<Y≤35%)”.

On to `C[C@H](NC(=O)c1ccc2c(c1)CN(C1CCC(=O)NC1=O)C2=O)c1ccccn1` (some centres unmarked) [Example 10], for which the DC50 lay within 100 to 500 nM and the Y result was “** (a Y value (shown as**) of 20%<Y≤35%)”.

`C[C@H](NC(=O)c1ccc2c(c1)CN(C1CCC(=O)NC1=O)C2=O)c1cccc(C#N)c1` (some centres unmarked) [Example 11]: the DC50 lay within 100 to 500 nM and the Y result is on record as “** (a Y value (shown as**) of 20%<Y≤35%)”.

As for `COc1ccc([C@H](C)NC(=O)c2ccc3c(c2)CN(C2CCC(=O)NC2=O)C3=O)cc1` (some centres unmarked) [Example 12], the DC50 was less than 100 nM and the Y result was “** (a Y value (shown as**) of 20%<Y≤35%)”.

Take `C[C@H](NC(=O)c1ccc2c(c1)CN(C1CCC(=O)NC1=O)C2=O)c1cccc(Cl)c1` (some centres unmarked) [Example 15]: the DC50 is less than 100 nM and the Y entry was “* (a Y value (shown as *) of 0<Y≤20%)”.

Turning to `C[C@H](NC(=O)c1ccc2c(c1)CN(C1CCC(=O)NC1=O)C2=O)c1ccc(F)cc1` (some centres unmarked) [Example 16], the DC50 is less than 100 nM and the Y entry was “** (a Y value (shown as**) of 20%<Y≤35%)”.

Turning to `C[C@H](NC(=O)c1ccc2c(c1)CN(C1CCC(=O)NC1=O)C2=O)c1cccnc1` (some centres unmarked) [Example 19], the DC50 lay in the range of 100 to 500 nM and the Y result is listed as “** (a Y value (shown as**) of 20%<Y≤35%)”.

Take `O=C1CCC(N2Cc3cc(C(=O)N[C@H](C4CCCCC4)C(F)(F)F)ccc3C2=O)C(=O)N1` (some centres unmarked) [Example 23]: the DC50 was less than 100 nM and the Y result is on record as “* (a Y value (shown as *) of 0<Y≤20%)”.

With `CC(C)[C@H](C)NC(=O)c1ccc2c(c1)CN(C1CCC(=O)NC1=O)C2=O` (some centres unmarked) [Example 28], the DC50 lay in the range of 100 to 500 nM and the Y result is “** (a Y value (shown as**) of 20%<Y≤35%)”.

Regarding `C[C@H](NC(=O)c1ccc2c(c1)CN(C1CCC(=O)NC1=O)C2=O)C(C)(C)C` (some centres unmarked) [Example 30], the 50% degradation concentration (DC50) is 500 to 1000 nM and the Y result is “** (a Y value (shown as**) of 20%<Y≤35%)”.

Regarding `COc1cccc([C@@H](NC(=O)c2ccc3c(c2)CN(C2CCC(=O)NC2=O)C3=O)C(F)(F)F)c1` (some centres unmarked) [Example 33], the DC50 is less than 100 nM and the Y entry is recorded as “* (a Y value (shown as *) of 0<Y≤20%)”.

As usually defined, the DC50 is the midpoint of the concentration-degradation curve.
